Laboratory results reported in PubChem BioAssay (NCI).
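GI50 is the concentration that inhibits growth by half. TGI: total growth inhibition.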

Columns and labels:
Assay in all cases: DTP human tumour cell line panel, 384-well format
MCF7 breast = test system: MCF7 breast
HOP-62 NSCLC = test system: HOP-62 NSCLC
NCI-H522 lung = test system: NCI-H522 lung
DU-145 prostate = test system: DU-145 prostate
BT-549 breast = test system: BT-549 breast
SW-620 colon = test system: SW-620 colon
SF-539 CNS = test system: SF-539 CNS
RPMI-8226 leukemia = test system: RPMI-8226 leukemia
MOLT-4 leukemia = test system: MOLT-4 leukemia
PC-3 prostate = test system: PC-3 prostate
HCC-2998 colon = test system: HCC-2998 colon
HCT-116 colon = test system: HCT-116 colon
ACHN renal = test system: ACHN renal
MDA-MB-468 breast = test system: MDA-MB-468 breast
UO-31 renal = test system: UO-31 renal
A498 renal = test system: A498 renal
OVCAR-4 ovarian = test system: OVCAR-4 ovarian
NCI-H322M lung = test system: NCI-H322M lung
HL-60(TB) leukemia = test system: HL-60(TB) leukemia
COLO 205 colon = test system: COLO 205 colon
SK-OV-3 ovarian = test system: SK-OV-3 ovarian
SK-MEL-2 melanoma = test system: SK-MEL-2 melanoma
HT29 colon = test system: HT29 colon
U251 glioblastoma = test system: U251 glioblastoma
MDA-MB-231 breast = test system: MDA-MB-231 breast
A549 NSCLC = test system: A549 NSCLC
NCI-H23 lung = test system: NCI-H23 lung
K-562 leukemia = test system: K-562 leukemia
OVCAR-5 ovarian = test system: OVCAR-5 ovarian

## Cc1cc2c(C(=O)NC[C@H](C)c3ccccc3)c(O)c(O)cc2c(O)c1-c1c(C)cc2c(C(=O)NC[C@H](C)c3ccccc3)c(O)c(O)cc2c1O
MCF7 breast
  GI50: 0.309 µM
  TGI: 1.18 µM
HOP-62 NSCLC
  GI50: 0.666 µM
  TGI: 2.09 µM
NCI-H522 lung
  GI50: 0.207 µM
  TGI: 0.396 µM
DU-145 prostate
  GI50: 0.382 µM
  TGI: 1.98 µM
BT-549 breast
  GI50: 0.243 µM
  TGI: 0.582 µM
SW-620 colon
  GI50: 1.48 µM
  TGI: 3.62 µM
SF-539 CNS
  GI50: 0.233 µM
  TGI: 0.579 µM
RPMI-8226 leukemia
  GI50: 0.238 µM
  TGI: 0.447 µM
MOLT-4 leukemia
  GI50: 0.218 µM
  TGI: 0.404 µM
PC-3 prostate
  GI50: 1.37 µM
  TGI: 2.75 µM
HCC-2998 colon
  GI50: 1.38 µM
  TGI: 3.2 µM
HCT-116 colon
  GI50: 0.274 µM
  TGI: 0.685 µM
ACHN renal
  GI50: 1.84 µM
  TGI: 4.04 µM
MDA-MB-468 breast
  GI50: 0.187 µM
  TGI: 0.374 µM
UO-31 renal
  GI50: 1.22 µM
  TGI: 2.94 µM
A498 renal
  GI50: 0.286 µM
  TGI: 0.818 µM
OVCAR-4 ovarian
  GI50: 0.935 µM
  TGI: 4.46 µM
NCI-H322M lung
  GI50: 1.76 µM
  TGI: 8.77 µM
HL-60(TB) leukemia
  GI50: 0.487 µM
  TGI: 1.39 µM
COLO 205 colon
  GI50: 1.94 µM
  TGI: 4.29 µM
SK-OV-3 ovarian
  GI50: 1.5 µM
  TGI: 3.9 µM
SK-MEL-2 melanoma
  GI50: 0.24 µM
  TGI: 1.03 µM
HT29 colon
  GI50: 1.23 µM
  TGI: 3.83 µM
U251 glioblastoma
  GI50: 0.281 µM
  TGI: 0.723 µM
MDA-MB-231 breast
  GI50: 0.654 µM
  TGI: 2.39 µM
A549 NSCLC
  GI50: 0.348 µM
  TGI: 1.39 µM
NCI-H23 lung
  GI50: 0.229 µM
  TGI: 0.448 µM
K-562 leukemia
  GI50: 0.328 µM
  TGI: 1.21 µM
OVCAR-5 ovarian
  GI50: 0.558 µM
